Experimental findings from patent publication US5086054A, “Novel arylcycloalkanepolyalkylamines” (SRI International, priority 1990, dated 1992) are described below.

Values joined by “and” are separate entries in the source; they are usually repeats but may differ in a detail not shown here. Equal values may be shown once. “Also recorded” adds a separate entry of the source. Where a name gives a salt, the structure may show the parent alone. Read-outs that look alike come from different tables or passages of the source.

The target of assay [1] is α1 -ADRENOCEPTOR
Briefly: α1-adrenoceptor binding ([3H]-prazosin). More on the design: species or system guinea-pig. The source says: (§1) This example illustrates the testing of compounds of this invention in dopamine D2, 5-HT2, muscarinic acetylcholine, α1 -adrenoceptor and β-adrenoceptor receptor assays. The receptor assay methods are described in Eur. J. Pharmacol., 155:345 (1988) except that in the β-adrenoceptor assay, [^125 I]-pindolol was used instead of [^3 H] dihydroalprenolol.
(§2) In this study, guinea-pig brains were used for binding studies. Homogenization and centrifugation procedures for preparation of brain membranes for each receptor assay were the same as described in Example 4 for the σ and PCP receptors. However, brain regions, tissue contents, and buffers may differ depending on the assay. Conditions of binding assays for various receptors were as follows:
For α1 -adrenoceptor assay, [^3 H]-prazosin (0.4 nM) was incubated in a 1 ml assay (50 mM Tris-HCl, pH 7.4) for 1 hour at 23° C. with membranes from 1 mg of whole brain minus cerebellum.
(§3) Filtration and washing conditions were the same as described above for the σ receptor assay. Nonspecific binding for each receptor was defined by the inclusion of 1 μM haloperidol for dopamine D2, 1 μM haloperidol for 5-HT2, 10 μM scopolamine for muscarinic acetylcholine, 10 μM prazosin for α1 -adrenoceptor, and 0.2 μM 1-propranolol for β-adrenoceptor. Retained radioactivity was measured by liquid scintillation spectrometry except for ^125 I-pindolol which was measured by the LKB gamma counter.
(§4) Programs in Biomed. 17:107 (1983)].

Assay [2] deals with 5-HT2 (Cavia porcellus, UniProt A0A286Y537). Briefly: 5-HT2 receptor binding. Further details: species or system guinea-pig.
Text: as §1, §2, §3, §4

For assay [3], the system named is MUSCARINIC ACETYLCHOLINE
It counts as binding, guinea-pig.
Text: as §1, §2
For muscarinic acetylcholine assay, […]) [^3 H]-quinuclidinyl benzylate ([^3 H]-QNB) was incubated in a 2 ml assay (50 mM Tris-HCl, pH 7.4) for 2 hours at 23° C. with membranes from 2 mg of whole brain minus cerebellum.
as §3, §4

In assay [4] the target is β-ADRENOCEPTOR
Briefly: β-adrenoceptor binding ([125I]-pindolol). More on the design: species or system guinea-pig.
Text: as §1, §2
For β-adrenoceptor, [^125 I]-pindolol (0.05 nM) was incubated in a 1 ml assay (50 mM Tris-HCl, pH 7.4) for 1 hr at 23° C. with membranes from 1 mg of whole brain minus cerebellum.
as §3, §4

Assay [5] concerns the target T1, SIGMA RECEPTOR (Cavia porcellus, UniProt Q60492).
T1 construct: Two milliter aliquots of the brain membrane preparation, containing 1.7 mg of protein; tissue Pel-Freeze (Rogers, Arkansas); host or cells: guinea-pig brains plus cerebella, membranes
Briefly: Sigma receptor binding assay ([3H]-d-SKF-10,047 displacement, brain membranes). More on the design: species or system guinea-pig (male Hartley). The settings on record: for SIGMA RECEPTOR SLOPE: slope of dose response curve. The protocol: (§5) This example illustrates testing of compounds in receptor binding assays.
(§6) Frozen brains from male Hartley guinea-pigs were obtained from Pel-Freeze (Rogers, Arkansas).
(§7) The brains plus cerebella were homogenized in 10 volumes (v/w) of 0.1M, pH 7.4, ice-cold Tris-HCl buffer with a Brinkmann polytron at setting 4 for 20 seconds. The homogenates were centrifuged at 20,000×g for 20 minutes at 4° C. The pellets were suspended in 10 volumes of ice-cold water and, after sitting on ice for 10 minutes, were centrifuged 30 minutes at 20,000×g at 4° C. The resulting pellets were resuspended in the above Tris buffer in ratio 1:100 (w/v) for σ receptor assays or in 5 mM Tris-HCl having pH 7.4, for PCP receptor assays. The final suspension was homogenized with a dounce glass-glass tissue grinder Wheaton "200", at small clearance (B), with three strokes before use. Two milliter aliquots of the brain membrane preparation, containing 1.7 mg of protein, were incubated in quadruplicate for one hour at 23° C. with competing mixture of ligand and radioligand. For σ receptors, [^3 H]-d-SKF-10,047, 2 nM was used. For PCP receptors, [^3 H] TCP [^3 H]-1-[1-(2-thienyl)cyclohexyl]piperidine), 1 nM was used. The nonspecific bindings were defined by 0.1 mM d-SKF-10,047 and 0.1 mM phencyclidine respectively for σ and PCP receptors. After incubation, free ligand was separated from bound ligand by rapid filtration through Whatman GF/C filters. The filters had been soaked before use in isoamyl alcohol-saturated water to prevent nonspecific [^3 H]-d-SKF-10,047 binding to the filter. In the PCP receptor assay, the filter was soaked in 0.5% polyethylenimine to reduce the filter binding of [^3 H]-TCP. After filtration, the trapped tissue was washed three times with 4 ml aliquots of 0.1 M ice-cold Tris buffer at pH 7.4 for σ receptors and 5 mM, ice-cold Tris buffer pH 7.4 for PCP receptors. The filters were transferred to 5 ml of liquid scintillation fluid and the retained radioactivity was measured by liquid scintillation spectrometry.

Assay [6] concerns the target PCP RECEPTOR
Briefly: PCP receptor binding assay ([3H]-TCP displacement, brain membranes). More on the design: species or system guinea-pig (male Hartley). The following applies: for potency at PCP receptors (in words): hydrochloride. The protocol: as §5, §6, §7, §4

The target of assay [7] is T2, DOPAMINE D2 (Cavia porcellus, UniProt H0VE83).
T2 construct: printed as cerebral cortical tissue, [3H]spiroperidol, haloperidol blank
Briefly: Dopamine D2 receptor binding ([3H]-spiroperidol). More on the design: species or system guinea-pig.
Text: as §1, §2
For dopamine D2 assay, 3 H-spiroperidol (0.15 nM) was incubated in a 2 ml assay (50 mM Tris-HCl, pH 7.4) for 2 hours at 23° C. with membranes from 12 mg of cerebral cortical tissue.
as §3, §4

Setting [8] is: Table 4, IC50 and nM only stated in text, read-out: α1 -ADRENOCEPTOR
Where [9] appears, read: Table 4, IC50 and nM only stated in text, read-out: 5-HT2.
Setting [10] is: Table 4, IC50 and nM only stated in text, read-out: MUSCARINIC ACETYLCHOLINE
[11] abbreviates: read-out: potency (IC50) at muscarinic acetylcholine receptor.
[12] abbreviates: Table 4, IC50 and nM only stated in text, read-out: β-ADRENOCEPTOR
Where [13] appears, read: Table 1, mean ± error (n), read-out: PCP RECEPTOR IC50.
Setting [14] is: Table 4, IC50 and nM only stated in text, read-out: PCP.
Where [15] appears, read: read-out: IC50 / potency for PCP receptors.
The mark [16] stands for this setting: Table 4, IC50 and nM only stated in text, read-out: SIGMA.

T1 sequence (Q60492 whole entry): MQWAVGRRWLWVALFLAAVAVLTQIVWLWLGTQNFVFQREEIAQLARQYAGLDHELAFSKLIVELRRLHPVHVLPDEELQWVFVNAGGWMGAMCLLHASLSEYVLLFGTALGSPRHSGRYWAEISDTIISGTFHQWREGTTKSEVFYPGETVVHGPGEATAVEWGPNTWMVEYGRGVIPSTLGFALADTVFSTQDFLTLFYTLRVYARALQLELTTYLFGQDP
Chain of 5-HT2 (A0A286Y537 1-470): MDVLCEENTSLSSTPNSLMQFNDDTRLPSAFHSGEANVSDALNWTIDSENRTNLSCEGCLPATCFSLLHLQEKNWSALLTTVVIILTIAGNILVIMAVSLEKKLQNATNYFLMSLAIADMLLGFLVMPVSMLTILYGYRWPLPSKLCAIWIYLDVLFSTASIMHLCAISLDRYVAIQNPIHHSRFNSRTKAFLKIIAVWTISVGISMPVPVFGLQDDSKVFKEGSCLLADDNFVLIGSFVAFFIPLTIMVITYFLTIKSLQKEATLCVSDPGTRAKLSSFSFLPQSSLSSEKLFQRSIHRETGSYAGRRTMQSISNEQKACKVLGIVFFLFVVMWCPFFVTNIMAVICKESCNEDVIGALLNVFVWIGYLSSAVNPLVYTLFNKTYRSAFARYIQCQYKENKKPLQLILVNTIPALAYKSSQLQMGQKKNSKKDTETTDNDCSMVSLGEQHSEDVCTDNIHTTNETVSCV
T2 sequence (H0VE83 entry or part of it): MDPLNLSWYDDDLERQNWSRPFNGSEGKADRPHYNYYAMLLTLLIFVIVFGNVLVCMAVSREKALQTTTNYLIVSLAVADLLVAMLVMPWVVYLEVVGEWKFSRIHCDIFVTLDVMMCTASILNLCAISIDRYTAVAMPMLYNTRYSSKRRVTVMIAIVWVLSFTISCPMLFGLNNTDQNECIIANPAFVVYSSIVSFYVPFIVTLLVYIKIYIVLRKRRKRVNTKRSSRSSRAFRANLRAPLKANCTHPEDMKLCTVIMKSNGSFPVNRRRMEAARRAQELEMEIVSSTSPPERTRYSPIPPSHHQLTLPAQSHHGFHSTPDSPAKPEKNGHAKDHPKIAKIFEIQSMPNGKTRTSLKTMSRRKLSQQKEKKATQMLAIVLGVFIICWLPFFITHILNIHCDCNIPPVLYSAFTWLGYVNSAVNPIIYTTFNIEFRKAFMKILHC

Regarding `O=C(OCCN1CCOCC1)C1(c2ccccc2)CCCCC1` [Compound 12, 2-(4-Morpholino)ethyl 1-phenylcyclohexane-1-carboxylate hydrochloride], the IC50 was above 100000 nM in assay [1] (setting [8]); above 100000 nM in assay [1] (read-out: potency for α1-adrenoceptor); 18700 nM in assay [2] (setting [9]); 18700 nM in assay [2] (read-out: potency for 5-HT2); 14000 nM in assay [3] (setting [10]); 14000 nM in assay [3] (setting [11]). Besides, the IC50 was above 200000 nM in assay [4] (setting [12]); above 200000 nM in assay [4] (read-out: potency for β-adrenoceptor); above 100000 nM in assay [6] (setting [13]); above 100000 nM in assay [6] (setting [14]); below 100000 nM in assay [6] (setting [15]). The “more potent at σ receptors than at 5-HT2 receptors” value in assay [2] (selectivity σ vs 5-HT2) is on record as at least 400 fold. Besides, the “more potent at σ receptors than at muscarinic acetylcholine receptors” value in assay [3] (selectivity σ vs muscarinic) is given as “at least 300 fold”. The “SIGMA RECEPTOR SLOPE” value in assay [5] (Table 1) was determined as 0.48 ± 0.05. Further, the “potency at σ receptors (in words)” value in assay [5] (hydrochloride) was “σ receptor potency increased; also recorded: very potent in the σ assay; also recorded: very high”. Further, in assay [5] (vs haloperidol, DTG, (+)-3-PPP, hydrochloride), the “σ potency compared with other known σ ligands (in words)” value is “not as great as other known σ ligands, such as for example haloperidol; also recorded: comparable to other σ ligands such a DTG and (+)-3-PPP”. The “potency at PCP receptors (in words)” value in assay [6] was “inactive in the PCP assay; also recorded: very weak or inactive in the PCP assay; also recorded: negligible; also recorded: low potency at PCP receptors; also recorded: relative inactivity”.
`CN(C)CCOC(=O)C1(c2ccccc2)CCCCC1.Cl` [Compound 19, 2-(Dimethylamino)ethyl 1-phenylcyclohexane-1-carboxylate hydrochloride]: the IC50 in assay [1] (setting [8]) was 29000 nM; in assay [2] (setting [9]), 1410 nM; in assay [3] (setting [10]), 750 ± 36 nM; in assay [3] (setting [11]), 750 nM; in assay [4] (setting [12]), 85700 nM; in assay [5] (setting [16]), 9.2 ± 0.8 nM. The IC50 is below 100 nM in assay [5] (read-out: IC50 at σ receptors), 21700 nM in assay [6] (setting [13]) and 21700 nM in assay [6] (setting [14]). In assay [2], the “potency at 5-HT2 receptors (in words)” value was “moderate potencies at dopamine D-2 and 5-HT2 receptors”. For the same compound, the “potency at dopamine D-2 receptors (in words)” value in assay [7] was “moderate potencies at dopamine D-2 and 5-HT2 receptors”. Besides, in assay [3], the “potency at muscarinic acetylcholine receptors (in words)” value is “quite potent at muscarinic acetylcholine receptors”. Moreover, in assay [5] (Table 1), the “SIGMA RECEPTOR SLOPE” value came out at 0.54 ± 0.02. The “potency at σ receptors (in words)” value in assay [5] (hydrochloride) was “σ receptor potency increased; also recorded: very potent in the σ assay; also recorded: very high”. Moreover, the “potency at PCP receptors (in words)” value in assay [6] is “inactive in the PCP assay; also recorded: very weak or inactive in the PCP assay; also recorded: negligible; also recorded: low potency at PCP receptors”.
As to `O=C(OCCN1CCCC1)C1(c2ccccc2)CCCCC1` [Compound 8, 2-(1-Pyrrolidino)ethyl 1-phenylcyclohexane-1-carboxylate hydrochloride], the IC50 in assay [1] (setting [8]) amounted to 23200 nM; in assay [2] (setting [9]), 2930 nM; in assay [3] (setting [10]) it was 123 ± 16 nM; in assay [3] (setting [11]), 23 nM; in assay [4] (setting [12]), 85000 nM; in assay [5] (setting [16]) it was 5.1 ± 1.7 nM. The IC50 in assay [5] (read-out: IC50 at σ receptors) is 5 nM and < 100 nM; in assay [6] (setting [13]), 64700 nM; in assay [6] (setting [14]), 64700 nM; in assay [6] (setting [15]), around 64000 nM. Besides, in assay [2], the “potency at 5-HT2 receptors (in words)” value is “moderate potencies at dopamine D-2 and 5-HT2 receptors”. The “potency at dopamine D-2 receptors (in words)” value in assay [7] is “moderate potencies at dopamine D-2 and 5-HT2 receptors”. Further, the “potency at muscarinic acetylcholine receptors (in words)” value in assay [3] is reported as “quite potent at muscarinic acetylcholine receptors”. In assay [5] (Table 1), the “SIGMA RECEPTOR SLOPE” value was 0.50 ± 0.02. The “potency at σ receptors (in words)” value in assay [5] (hydrochloride) was “σ receptor potency increased; also recorded: very high”. Moreover, the “potency at PCP receptors (in words)” value in assay [6] is “inactive in the PCP assay; also recorded: negligible; also recorded: low potency at PCP receptors”.
For the compound `O=C(OCCN1CCCCC1)C1(c2ccccc2)CCCCC1` [Compound 3, 2-(1-Piperidino)ethyl 1-phenylcyclohexane-1-carboxylate hydrochloride], the IC50 was found to be 24100 nM in assay [1] (setting [8]); 3660 nM in assay [2] (setting [9]); 46 ± 7 nM in assay [3] (setting [10]); 46 nM in assay [3] (setting [11]); 80400 nM in assay [4] (setting [12]); 24 nM in assay [5] (Table 1, mean ± error (n), read-out: SIGMA RECEPTOR IC50). Besides, the IC50 in assay [5] (setting [16]) was 26 ± 7 nM; in assay [5] (read-out: IC50 at σ receptors), below 100 nM; in assay [6] (setting [13]), 34900 nM; in assay [6] (setting [14]) it was 34900 nM. The “potency at 5-HT2 receptors (in words)” value in assay [2] was “moderate potencies at dopamine D-2 and 5-HT2 receptors”. Besides, the “potency at dopamine D-2 receptors (in words)” value in assay [7] is “moderate potencies at dopamine D-2 and 5-HT2 receptors”. In assay [3], the “potency at muscarinic acetylcholine receptors (in words)” value is on record as “quite potent at muscarinic acetylcholine receptors”. Besides, the “SIGMA RECEPTOR SLOPE” value in assay [5] (Table 1) was found to be 0.45 ± 0.04. Moreover, in assay [5] (hydrochloride), the “potency at σ receptors (in words)” value was “increased the potency of the compound in the σ receptor assay; also recorded: very potent in the σ assay; also recorded: very high”. Besides, the “increased potency for σ receptors” value in assay [5] (relative to PCP (1)) is “more than 300 times”. Besides, the “potency at PCP receptors (in words)” value in assay [6] is “reduced the potency in the PCP receptor assay; also recorded: inactive in the PCP assay; also recorded: very weak or inactive in the PCP assay; also recorded: negligible; also recorded: low potency at PCP receptors”. Moreover, the “decreased potency for PCP receptors” value in assay [6] (relative to PCP (1)) is “about 700 times”.
